The text below walks through data of patent US8536133B2, “Selective high-affinity polydentate ligands and methods of making such” (Lawrence Livermore National Security, LLC., priority 2004, dated 2013).

Molecules are shown by their SMILES.

The target of this test is HLA-DR10 (Homo sapiens, UniProt P01911). The test can be described thus: Subsequent screenings of ligands for binding to HLA-DR10.
HLA-DR10, sequence (P01911 30-266 with the stated changes): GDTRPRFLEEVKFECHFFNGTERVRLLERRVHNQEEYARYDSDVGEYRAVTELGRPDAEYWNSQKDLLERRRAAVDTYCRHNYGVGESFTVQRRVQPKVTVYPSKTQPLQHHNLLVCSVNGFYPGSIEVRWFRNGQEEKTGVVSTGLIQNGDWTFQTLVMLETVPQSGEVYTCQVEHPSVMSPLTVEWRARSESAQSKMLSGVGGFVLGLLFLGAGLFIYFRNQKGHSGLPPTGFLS
HLA-DR10, sequence (P01903 26-254 partner): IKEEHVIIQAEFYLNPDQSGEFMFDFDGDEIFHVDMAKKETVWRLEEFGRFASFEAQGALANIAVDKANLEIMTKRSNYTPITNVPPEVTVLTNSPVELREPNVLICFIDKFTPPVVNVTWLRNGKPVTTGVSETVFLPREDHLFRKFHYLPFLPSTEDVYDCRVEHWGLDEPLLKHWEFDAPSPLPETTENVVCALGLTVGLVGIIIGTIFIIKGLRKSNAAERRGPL

Take `Nc1ccc(Oc2ccc(C(=O)c3ccc(C(=O)c4ccc(Oc5ccc(N)cc5)cc4)cc3)cc2)cc1` [1,4-Phenylenebis[[4-(4-aminophenoxy)phenyl]methanone]]: the “observation with the target protein in screening” value is on record as “precipitated onto the target protein”.
